The molecules below were run against T1, Recombinant human KIF18A (1-467 His-tagged) (Homo sapiens, UniProt Q8NI77) (assay: KIF18A Enzyme Assay: microtubule-stimulated ATPase activity (ADP-Glo)). Details: 30 nM KIF18A, 30 μg/mL pig microtubules, ATP 75 μM (Km), ADP-Glo luminescence.
T1 construct: Recombinant human KIF18A (1-467 His-tagged) protein; His
Type: biochemical
Experimental: KIF18A Enzyme Assay: Microtubule-stimulated ATPase activity assay is used to measure KIF18A enzyme activity after treatment with compound. Compounds were 2-fold serially diluted in DMSO (Sigma Inc) over 22-point concentration range. […] The assay measures ADP formed from the ATPase reaction. […] Read luminescence using EnVision microplate reader with ultra-luminescence module (Perkin Elmer Inc). Concentration-response curve-fitting and IC50 determination was performed using Genedata Screener Software (Standard 15.0.1, Genedata Inc) with a four-parameter logistic regression fit model.

T1 sequence (Q8NI77 1-467): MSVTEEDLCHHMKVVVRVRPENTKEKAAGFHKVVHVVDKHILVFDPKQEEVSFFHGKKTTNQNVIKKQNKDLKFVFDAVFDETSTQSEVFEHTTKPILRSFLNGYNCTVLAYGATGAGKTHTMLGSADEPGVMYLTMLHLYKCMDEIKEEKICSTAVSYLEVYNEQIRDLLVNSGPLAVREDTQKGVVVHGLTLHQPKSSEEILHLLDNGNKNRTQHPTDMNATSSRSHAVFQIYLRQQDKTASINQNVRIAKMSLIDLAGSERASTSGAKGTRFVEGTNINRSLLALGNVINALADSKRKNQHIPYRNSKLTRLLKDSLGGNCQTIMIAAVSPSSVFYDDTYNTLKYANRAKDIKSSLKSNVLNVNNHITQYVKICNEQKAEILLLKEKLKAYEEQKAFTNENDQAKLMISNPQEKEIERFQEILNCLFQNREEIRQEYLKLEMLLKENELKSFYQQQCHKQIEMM
T1 sequence (P02550 whole entry partner): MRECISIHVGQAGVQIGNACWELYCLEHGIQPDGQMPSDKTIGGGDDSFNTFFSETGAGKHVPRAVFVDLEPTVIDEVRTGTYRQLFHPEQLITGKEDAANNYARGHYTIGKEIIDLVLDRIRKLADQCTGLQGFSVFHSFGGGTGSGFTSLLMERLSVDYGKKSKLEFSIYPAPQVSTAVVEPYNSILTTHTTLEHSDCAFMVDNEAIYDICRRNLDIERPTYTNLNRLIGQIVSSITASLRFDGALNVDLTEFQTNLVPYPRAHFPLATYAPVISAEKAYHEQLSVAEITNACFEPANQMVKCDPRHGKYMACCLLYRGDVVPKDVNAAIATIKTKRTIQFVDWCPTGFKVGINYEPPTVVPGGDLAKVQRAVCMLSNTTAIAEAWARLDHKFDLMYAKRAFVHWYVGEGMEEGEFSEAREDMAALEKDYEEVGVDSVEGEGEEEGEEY
T1 sequence (P02554 whole entry partner): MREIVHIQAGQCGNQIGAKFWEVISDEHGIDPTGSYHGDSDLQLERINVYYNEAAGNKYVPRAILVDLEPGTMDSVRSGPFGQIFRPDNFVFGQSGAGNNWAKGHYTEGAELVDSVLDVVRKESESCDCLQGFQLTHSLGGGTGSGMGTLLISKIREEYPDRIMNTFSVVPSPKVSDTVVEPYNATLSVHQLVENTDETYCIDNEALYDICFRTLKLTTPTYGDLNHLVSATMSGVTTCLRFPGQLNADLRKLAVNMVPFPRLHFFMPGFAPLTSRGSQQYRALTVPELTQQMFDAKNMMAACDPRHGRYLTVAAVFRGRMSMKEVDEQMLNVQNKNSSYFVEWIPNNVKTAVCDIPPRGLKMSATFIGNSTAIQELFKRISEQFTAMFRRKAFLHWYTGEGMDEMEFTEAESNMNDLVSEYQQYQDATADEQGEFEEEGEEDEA

IC50	SMILES
115 nM	CC(O)COc1cccc(NC(=O)c2ccc(NS(=O)(=O)CCO)cc2N2CCC3(CC2)CC3)n1 (stereo not drawn) [Example 16-4, 4-((2-Hydroxyethyl)sulfonamido)-N-(6-(2-hydroxypropoxy)pyridin-2-yl)-2-(6-azaspiro[2.5]octan-6-yl)benzamide]
87 nM	C[C@@H]1CN(c2cc(C3CC3)cc(NC(=O)c3ccc(NS(=O)(=O)CCO)cc3N3CCC4(CC3)CC4)n2)CCO1 [Example 19, (R)—N-(4-cyclopropyl-6-(2-methylmorpholino)pyridin-2-yl)-4-((2-hydroxyethyl)sulfonamido)-2-(6-azaspiro[2.5]octan-6-yl)benzamide]
141 nM	C[C@@H]1CN(c2cccc(NC(=O)c3ccc(S(=O)(=O)C4(C)COC4)cc3N3CCC4(CC3)CC4)n2)CCO1 [Example 2-3, (R)-N-(6-(2-Methylmorpholino)pyridin-2-yl)-4-((3-methyloxetan-3-yl)sulfonyl)-2-(6-azaspiro[2.5]octan-6-yl)benzamide]
359 nM	CC1(O)CCN(c2cccc(NC(=O)c3ccc(NS(=O)(=O)C4(C)CC4)cc3N3CCC4(CC3)CC4)n2)C1 (stereo not drawn) [Example 3-2, N-(6-(3-Hydroxy-3-methylpyrrolidin-1-yl)pyridin-2-yl)-4-((1-methylcyclopropane)-1-sulfonamido)-2-(6-azaspiro[2.5]octan-6-yl)benzamide]
16 nM	N=[S@@](=O)(c1ccc(C(=O)Nc2cccc(OCCC(F)(F)F)n2)c(N2CCC3(CC2)CC3)c1)C1CC1 (single isomer, unassigned) [Example 27-2, 2-(6-Azaspiro[2.5]octan-6-yl)-4-(R-cyclopropylsulfonimidoyl)-N-(6-(3,3,3-trifluoropropoxy)-2-pyridinyl)benzamide]
287 nM	C[C@@H]1CN(c2cccc(NC(=O)c3ccc(N4CCNS4(=O)=O)cc3N3CCC4(CC3)CC4)n2)CCO1 [Example 7-4, (R)-4-(1,1-Dioxido-1,2,5-thiadiazolidin-2-yl)-N-(6-(2-methylmorpholino)pyridin-2-yl)-2-(6-azaspiro[2.5]octan-6-yl)benzamide]
45 nM	Cc1cc(NC(=O)c2ccc(NS(=O)(=O)CCO)cc2N2CCC3(CC2)CC3)nc(C2CC(F)(F)C2)c1 [Example 7-1, N-(6-(3,3-Difluorocyclobutyl)-4-methylpyridin-2-yl)-4-((2-hydroxyethyl)sulfonamido)-2-(6-azaspiro[2.5]octan-6-yl)benzamide]
149 nM	CC(C)(C)NS(=O)(=O)c1ccc(C(=O)Nc2cccc(NC3(CO)COC3)n2)c(N2CCC3(CC2)CC3)c1 [Example 3-4, 4-(N-(tert-Butyl)sulfamoyl)-N-(6-((3-(hydroxymethyl)oxetan-3-yl)amino)pyridin-2-yl)-2-(6-azaspiro[2.5]octan-6-yl)benzamide]
62 nM	Cc1cc(NC(=O)c2ccc(NS(=O)(=O)CF)cc2N2CCC3(CC2)CC3)nc(N2CCO[C@H](C)C2)c1 [Example 7-36, (R)-4-((Fluoromethyl)sulfonamido)-N-(4-methyl-6-(2-methylmorpholino)pyridin-2-yl)-2-(6-azaspiro[2.5]octan-6-yl)benzamide]
43 nM	C[C@@H]1CN(c2cccc(NC(=O)c3ccc(S(=N)(=O)C4CC4)cc3N3CCC4(CC3)CC4)n2)CCO1 (single isomer, unassigned) [Example 12-2]
37 nM	C[C@@H]1CN(c2cccc(NC(=O)c3ccc(NS(=O)(=O)[C@H](C)CO)cc3N3CCC4(CC3)CC4)n2)CCO1 (single isomer, unassigned) [Example 9-15]
86 nM	CC1(S(=O)(=O)Nc2ccc(C(=O)Nc3cccc(N4CCC[C@@H](CO)C4)n3)c(N3CCC4(CC3)CC4)c2)CC1 [Example 3-6, (R)-N-(6-(3-(Hydroxymethyl)piperidin-1-yl)pyridin-2-yl)-4-((1-methylcyclopropane)-1-sulfonamido)-2-(6-azaspiro[2.5]octan-6-yl)benzamide]
56 nM	CC1(S(=O)(=O)Nc2ccc(C(=O)Nc3cccc(N4CCC[C@H](O)C4)n3)c(N3CCC4(CC3)CC4)c2)CC1 [Example 3-1, (S)-N-(6-(3-Hydroxypiperidin-1-yl)pyridin-2-yl)-4-((1-methylcyclopropane)-1-sulfonamido)-2-(6-azaspiro[2.5]octan-6-yl)benzamide]
175 nM	CC1(S(=O)(=O)Nc2ccc(C(=O)Nc3cccc(N4CCC[C@](C)(O)C4)n3)c(N3CCC4(CC3)CC4)c2)CC1 [Example 3-9, (S)-N-(6-(3-Hydroxy-3-methylpiperidin-1-yl)pyridin-2-yl)-4-((1-methylcyclopropane)-1-sulfonamido)-2-(6-azaspiro[2.5]octan-6-yl)benzamide]
222 nM	Cc1cc(NC(=O)c2ccc(S(=O)(=O)NC(C)(C)C)cc2N2CCC3(CC2)CC3)nc(N2CCOCC2)c1 [Example 1-10, 4-(N-(tert-Butyl)sulfamoyl)-N-(4-methyl-6-morpholinopyridin-2-yl)-2-(6-azaspiro[2.5]octan-6-yl)benzamide]
41 nM	Cc1cc(NC(=O)c2ccc(NS(=O)(=O)CCO)cc2N2CCC3(CC2)CC3)nc(C2CCC(F)(F)CC2)c1 [Example 23, N-(6-(4,4-difluorocyclohexyl)-4-methylpyridin-2-yl)-4-((2-hydroxyethyl)sulfonamido)-2-(6-azaspiro[2.5]octan-6-yl)benzamide]
14 nM	C[C@@H](CO)S(=O)(=O)Nc1ccc(C(=O)Nc2cccc(OCCC(F)(F)F)n2)c(N2CCC3(CC2)CC3)c1 (single isomer, unassigned) [Example 8-2]
110 nM	Cc1cc(NC(=O)c2ccc(NS(=O)(=O)C3CCC3)cc2N2CCC3(CC2)CC3)nc(N2CCC(F)(F)CC2)c1 [Example 7-23, 4-(Cyclobutanesulfonamido)-N-(6-(4,4-difluoropiperidin-1-yl)-4-methylpyridin-2-yl)-2-(6-azaspiro[2.5]octan-6-yl)benzamide]
58 nM	CC1(S(=O)(=O)Nc2ccc(C(=O)Nc3cccc(N4CC(F)C4)n3)c(N3CCC4(CC3)CC4)c2)CC1 [Example 3-16, N-(6-(3-Fluoroazetidin-1-yl)pyridin-2-yl)-4-((1-methylcyclopropane)-1-sulfonamido)-2-(6-azaspiro[2.5]octan-6-yl)benzamide]
74 nM	Cc1cc(NC(=O)c2ccc(NS(=O)(=O)CCO)cc2N2CCC3(CC2)CC3)nc(N2CCO[C@H](C)C2)c1 [Example 7-18, (R)-4-((2-Hydroxyethyl)sulfonamido)-N-(4-methyl-6-(2-methylmorpholino)pyridin-2-yl)-2-(6-azaspiro[2.5]octan-6-yl)benzamide]
50 nM	CC1(S(=O)(=O)Nc2ccc(C(=O)Nc3cccc(N4CCC5(CC5)C4)n3)c(N3CCC4(CC3)CC4)c2)CC1 [Example 3-20, N-(6-(5-Azaspiro[2.4]heptan-5-yl)pyridin-2-yl)-4-((1-methylcyclopropane)-1-sulfonamido)-2-(6-azaspiro[2.5]octan-6-yl)benzamide]
68 nM	Cc1cc(NC(=O)c2ccc(NS(=O)(=O)C(C)C)cc2N2CCC3(CC2)CC3)nc(N2CC(F)(F)C2)c1 [Example 7-28, N-(6-(3,3-Difluoroazetidin-1-yl)-4-methylpyridin-2-yl)-4-((1-methylethyl)sulfonamido)-2-(6-azaspiro[2.5]octan-6-yl)benzamide]
209 nM	C[C@@H]1CN(c2cccc(NC(=O)c3ccc(S(=O)(=O)N4CC(C#N)C4)cc3N3CCC4(CC3)CC4)n2)CCO1 [Example 1-13, (R)-4-((3-Cyanoazetidin-1-yl)sulfonyl)-N-(6-(2-methylmorpholino)pyridin-2-yl)-2-(6-azaspiro[2.5]octan-6-yl)benzamide]
78 nM	C[C@@H]1CN(c2cccc(NC(=O)c3ccc(S(=O)(=O)C(C)(C)C)cc3N3CCC4(CC3)CC4)n2)CCO1 [Example 2-2, (R)-4-(tert-Butylsulfonyl)-N-(6-(2-methylmorpholino)pyridin-2-yl)-2-(6-azaspiro[2.5]octan-6-yl)benzamide]
22 nM	N=S(=O)(c1ccc(C(=O)Nc2cccc(OCCC(F)(F)F)n2)c(N2CCC3(CC2)CC3)c1)C1CC1 (single isomer, unassigned) [Example 27-1, 2-(6-Azaspiro[2.5]octan-6-yl)-4-(S-cyclopropylsulfonimidoyl)-N-(6-(3,3,3-trifluoropropoxy)-2-pyridinyl)benzamide]
68 nM	C[C@@H](CO)S(=O)(=O)Nc1ccc(C(=O)Nc2cccc(N3CC(F)(F)C3)n2)c(N2CCC3(CC2)CC3)c1 (single isomer, unassigned) [Example 9-4]
207 nM	C[C@@H]1CN(c2cccc(NC(=O)c3ccc(NS(=O)(=O)C(F)(F)F)cc3N3CCC4(CC3)CC4)n2)CCO1 [Example 7-41, (R)-N-(6-(2-Methylmorpholino)pyridin-2-yl)-2-(6-azaspiro[2.5]octan-6-yl)-4-((trifluoromethyl)sulfonamido)benzamide]
67 nM	C[C@@H]1CN(c2cccc(NC(=O)c3ccc(NS(=O)(=O)C(C)(C)C)cc3N3CCC4(CC3)CC4)n2)CCO1 [Example 7-16, (R)-4-((1,1-Dimethylethyl)sulfonamido)-N-(6-(2-methylmorpholino)pyridin-2-yl)-2-(6-azaspiro[2.5]octan-6-yl)benzamide]
31 nM	Cc1cc(NC(=O)c2ccc(NS(=O)(=O)CCO)cc2N2CCC3(CC2)CC3)nc(N2CC(F)(F)C2)c1 [Example 11, N-(6-(3,3-Difluoroazetidin-1-yl)-4-methylpyridin-2-yl)-4-((2-hydroxyethyl)sulfonamido)-2-(6-azaspiro[2.5]octan-6-yl)benzamide]

SMILES	IC50
Cc1cc(NC(=O)c2ccc(NS(=O)(=O)CCO)cc2N2CCC3(CC2)CC3)nc(OCCCC(F)(F)F)c1 [Example 17-3, 4-((2-Hydroxyethyl)sulfonamido)-N-(4-methyl-6-(4,4,4-trifluorobutoxy)pyridin-2-yl)-2-(6-azaspiro[2.5]octan-6-yl)benzamide]	184 nM
